Test results taken from article PMC7898037, “Improving mitochondria and ER stability helps eliminate upper motor neuron degeneration that occurs due to mSOD1 toxicity and TDP‐43 pathology” (Clinical and Translational Medicine, 2021).

Tests used:
[1] = test system: prpTDP‐43^A315T‐UeGFP mice; test: Hanging wire test (max 60 s), prpTDP‐43^A315T‐UeGFP mice; format: in vivo; settings: for wire hanging, Predicted (LS) mean: prpTDP-43A315T-UeGFP (NU-9 100 mg/kg/day); for wire hanging, Average: prpTDP-43A315T-UeGFP, NU-9 100 mg/kg/day po
Protocol: (§1) hSOD1^G93A‐UeGFP, prpTDP‐43^A315T‐UeGFP and WT‐UeGFP mice were weighed and the required NU‐9 dose per weight was calculated (20 or 100 mg/kg), which was administered once daily by oral gavage, starting at postnatal day (P)60 and continuing until P120. Animals from the untreated group received the vehicle (NMP and olive oil) only. For oral administration purposes, 20 ga × 38 mm plastic feeding tubes were used (Instech Laboratories, Inc). The gavage tip was inserted into the mouth directly over the tongue and into the pharynx. While observing the swallowing reflex, the tip was safely and smoothly slid into the esophagus. Once the administration was completed, the gavage tip was pulled straight out.
(§2) Behavior data were collected from hSOD1^G93A‐UeGFP and WT‐UeGFP mice (starting at P60 and every 7 days until P116) and from prpTDP‐43^A315T‐UeGFP mice (at P60, P90, and P120) with the following number of mice for each group: WT‐UeGFP vehicle (n = 10), hSOD1^G93A‐UeGFP vehicle (n = 6), WT‐UeGFP 20 mg/kg/day NU‐9 (n = 5), hSOD1^G93A‐UeGFP 20 mg/kg/day NU‐9 (n = 7), WT‐UeGFP 100 mg/kg/day NU‐9 (n = 11), hSOD1^G93A‐UeGFP 100 mg/kg/day NU‐9 (n = 9), prpTDP‐43^A315T‐UeGFP untreated (n ≥ 3), and prpTDP‐43^A315T‐UeGFP 100 mg/kg/day NU‐9 (n = 4) (Table S3).
(§3) Mice were placed on a wire mesh, which was then inverted and suspended above the home cage; the time when the animal fell was recorded. This test was performed three times for a maximum of 60 s each session, with a 1‐min rest period between each trial. The average performance for each session is presented as the average of the three trials.

WT‐UeGFP mice = test: Hanging wire test (max 60 s), WT‐UeGFP mice; format: in vivo; design: Mean Diff. (wire hanging), vehicle vs. NU-9 / Mean (wire hanging): unit not given here; settings: for Hanging wire test, group mean (Mean 1 / Mean 2): WT-UeGFP mice; for wire hanging, Average / Mean (wire hanging): WT-UeGFP
Protocol: as §1, §2, §3

[2] = test system: SOD1^G93A‐expressing PC12 cell; settings: in vitro potency; read-out: EC50 (protein aggregation/toxicity); cited from earlier work
mice = settings: cited from earlier work
hERG channel = settings: cited from earlier work
[3] = design: method as in PMID 22189273, PMID 22837812; settings: cited from earlier work
[4] = cited from earlier work
[5] = WT-UeGFP vehicle vs. NU-9 20 mg/kg/day, P102
[6] = WT-UeGFP vehicle vs. NU-9 20 mg/kg/day, P109
[7] = WT-UeGFP vehicle vs. NU-9 20 mg/kg/day, P116
[8] = WT-UeGFP vehicle vs. NU-9 100 mg/kg/day, P102
[9] = WT-UeGFP vehicle vs. NU-9 100 mg/kg/day, P109
[10] = WT-UeGFP vehicle vs. NU-9 100 mg/kg/day, P116

C[C@H](Oc1cc(C(F)(F)F)cc(C(F)(F)F)c1)C1CC(=O)CC(=O)C1 [NU‐9]
wire hanging, Predicted (LS) mean ([1]; P60, mixed-effects analysis): 56.83 | wire hanging, Predicted (LS) mean ([1]; P90, mixed-effects analysis): 57.17 | wire hanging, Predicted (LS) mean ([1]; P120, mixed-effects analysis): 59.67 | wire hanging, Average ([1]; P60): 55.7778 | wire hanging, Average ([1]; P90): 56.2222 | wire hanging, Average ([1]; P120): 59.5556 | hanging wire test, latency to fall ([1]; prpTDP‐43^A315T mice, 100 mg/kg/day, P120): 59.5 ± 0.3 s | Hanging wire test, group mean (Mean 1 / Mean 2) (WT‐UeGFP mice; NU-9 20 mg/kg/day, P102, max 60 s): 60 s | Hanging wire test, group mean (Mean 1 / Mean 2) (WT‐UeGFP mice; NU-9 20 mg/kg/day, P109, max 60 s): 60 s | Hanging wire test, group mean (Mean 1 / Mean 2) (WT‐UeGFP mice; NU-9 20 mg/kg/day, P116, max 60 s): 60 s | Hanging wire test, group mean (Mean 1 / Mean 2) (WT‐UeGFP mice; NU-9 100 mg/kg/day, P102, max 60 s): 60 s | Hanging wire test, group mean (Mean 1 / Mean 2) (WT‐UeGFP mice; NU-9 100 mg/kg/day, P109, max 60 s): 60 s | Hanging wire test, group mean (Mean 1 / Mean 2) (WT‐UeGFP mice; NU-9 100 mg/kg/day, P116, max 60 s): 59.7 s | Mean Diff. (wire hanging), vehicle vs. NU-9 (WT‐UeGFP mice; WT-UeGFP vehicle vs. NU-9 20 mg/kg/day, P60): 0 | Mean Diff. (wire hanging), vehicle vs. NU-9 (WT‐UeGFP mice; WT-UeGFP vehicle vs. NU-9 20 mg/kg/day, P67): 0.3333 | Mean Diff. (wire hanging), vehicle vs. NU-9 (WT‐UeGFP mice; WT-UeGFP vehicle vs. NU-9 20 mg/kg/day, P74): 2.267 | Mean Diff. (wire hanging), vehicle vs. NU-9 (WT‐UeGFP mice; WT-UeGFP vehicle vs. NU-9 20 mg/kg/day, P81): 0 | Mean Diff. (wire hanging), vehicle vs. NU-9 (WT‐UeGFP mice; WT-UeGFP vehicle vs. NU-9 20 mg/kg/day, P88): 0 | Mean Diff. (wire hanging), vehicle vs. NU-9 (WT‐UeGFP mice; WT-UeGFP vehicle vs. NU-9 20 mg/kg/day, P95): 2 | Hanging wire test, mean difference vehicle minus NU-9 (WT‐UeGFP mice; [5]): 0 s | Mean Diff. (wire hanging), vehicle vs. NU-9 (WT‐UeGFP mice; [5]): 0 | Hanging wire test, mean difference vehicle minus NU-9 (WT‐UeGFP mice; [6]): 0 s | Mean Diff. (wire hanging), vehicle vs. NU-9 (WT‐UeGFP mice; [6]): 0 | Hanging wire test, mean difference vehicle minus NU-9 (WT‐UeGFP mice; [7]): 0 s | Mean Diff. (wire hanging), vehicle vs. NU-9 (WT‐UeGFP mice; [7]): 0 | Mean Diff. (wire hanging), vehicle vs. NU-9 (WT‐UeGFP mice; WT-UeGFP vehicle vs. NU-9 100 mg/kg/day, P60): 1.273 | Mean Diff. (wire hanging), vehicle vs. NU-9 (WT‐UeGFP mice; WT-UeGFP vehicle vs. NU-9 100 mg/kg/day, P67): 0 | Mean Diff. (wire hanging), vehicle vs. NU-9 (WT‐UeGFP mice; WT-UeGFP vehicle vs. NU-9 100 mg/kg/day, P74): 0 | Mean Diff. (wire hanging), vehicle vs. NU-9 (WT‐UeGFP mice; WT-UeGFP vehicle vs. NU-9 100 mg/kg/day, P81): 0 | Mean Diff. (wire hanging), vehicle vs. NU-9 (WT‐UeGFP mice; WT-UeGFP vehicle vs. NU-9 100 mg/kg/day, P88): 0.1818 | Mean Diff. (wire hanging), vehicle vs. NU-9 (WT‐UeGFP mice; WT-UeGFP vehicle vs. NU-9 100 mg/kg/day, P95): 0 | Hanging wire test, mean difference vehicle minus NU-9 (WT‐UeGFP mice; [8]): 0 s | Mean Diff. (wire hanging), vehicle vs. NU-9 (WT‐UeGFP mice; [8]): 0 | Hanging wire test, mean difference vehicle minus NU-9 (WT‐UeGFP mice; [9]): 0 s | Mean Diff. (wire hanging), vehicle vs. NU-9 (WT‐UeGFP mice; [9]): 0 | Hanging wire test, mean difference vehicle minus NU-9 (WT‐UeGFP mice; [10]): 0.303 s | Mean Diff. (wire hanging), vehicle vs. NU-9 (WT‐UeGFP mice; [10]): 0.303 | wire hanging, Average (WT‐UeGFP mice; NU-9 20 mg/kg/day po, P60): 60 s | wire hanging, Average (WT‐UeGFP mice; NU-9 20 mg/kg/day po, P67): 59.6667 s | wire hanging, Average (WT‐UeGFP mice; NU-9 20 mg/kg/day po, P74): 57.7333 s | wire hanging, Average (WT‐UeGFP mice; NU-9 20 mg/kg/day po, P81): 60 s | wire hanging, Average (WT‐UeGFP mice; NU-9 20 mg/kg/day po, P88): 60 s | wire hanging, Average (WT‐UeGFP mice; NU-9 20 mg/kg/day po, P95): 58 s | wire hanging, Average (WT‐UeGFP mice; NU-9 20 mg/kg/day po, P102): 60 s | wire hanging, Average (WT‐UeGFP mice; NU-9 20 mg/kg/day po, P109): 60 s | wire hanging, Average (WT‐UeGFP mice; NU-9 20 mg/kg/day po, P116): 60 s | Mean (wire hanging) (WT‐UeGFP mice; NU-9 20 mg/kg/day, P60): 60 | Mean (wire hanging) (WT‐UeGFP mice; NU-9 20 mg/kg/day, P67): 59.67 | Mean (wire hanging) (WT‐UeGFP mice; NU-9 20 mg/kg/day, P74): 57.73 | Mean (wire hanging) (WT‐UeGFP mice; NU-9 20 mg/kg/day, P81): 60 | Mean (wire hanging) (WT‐UeGFP mice; NU-9 20 mg/kg/day, P88): 60 | Mean (wire hanging) (WT‐UeGFP mice; NU-9 20 mg/kg/day, P95): 58 | wire hanging, Average (WT‐UeGFP mice; NU-9 100 mg/kg/day po, P60): 58.7273 s | wire hanging, Average (WT‐UeGFP mice; NU-9 100 mg/kg/day po, P67): 60 s | wire hanging, Average (WT‐UeGFP mice; NU-9 100 mg/kg/day po, P74): 60 s | wire hanging, Average (WT‐UeGFP mice; NU-9 100 mg/kg/day po, P81): 60 s | wire hanging, Average (WT‐UeGFP mice; NU-9 100 mg/kg/day po, P88): 59.8182 s | wire hanging, Average (WT‐UeGFP mice; NU-9 100 mg/kg/day po, P95): 60 s | wire hanging, Average (WT‐UeGFP mice; NU-9 100 mg/kg/day po, P102): 60 s | wire hanging, Average (WT‐UeGFP mice; NU-9 100 mg/kg/day po, P109): 60 s | wire hanging, Average (WT‐UeGFP mice; NU-9 100 mg/kg/day po, P116): 59.697 s | Mean (wire hanging) (WT‐UeGFP mice; NU-9 100 mg/kg/day, P60): 58.73 | Mean (wire hanging) (WT‐UeGFP mice; NU-9 100 mg/kg/day, P67): 60 | Mean (wire hanging) (WT‐UeGFP mice; NU-9 100 mg/kg/day, P74): 60 | Mean (wire hanging) (WT‐UeGFP mice; NU-9 100 mg/kg/day, P81): 60 | Mean (wire hanging) (WT‐UeGFP mice; NU-9 100 mg/kg/day, P88): 59.82 | Mean (wire hanging) (WT‐UeGFP mice; NU-9 100 mg/kg/day, P95): 60 | EC50 [2]: 300 nM | MTD (mice; ip): 1280 mg/kg | NOAEL (mice; po, 7‐day repeat toxicology study): 100 mg/kg | inhibition of the hERG channel (hERG channel): little inhibition | hERG antagonism (hERG channel; up to 30 µM): No inhibition up to 30 µM | PAMPA‐BBB P e [3]: 8.11 × 10^–6 cm/s | PAMPA‐BBB classification [3]: CNS+ | plasma stability t 1/2 [4]: > 2 h
